The subject of assay [1] is human CD4 T cells, IL-17A production. Briefly: Th17 differentiation assay (IL-17A production). Type of assay: cell-based. The settings on record: 72 h; for IC50: Homo sapiens, CD4+ T, read-out: Th17 Differentiation (IL-17A production) (IC50, nM).
In assay [2] the test system is human CD4 T cells, IFNγ production. Put plainly: Th1 differentiation assay (IFNγ production). The class given is cell-based. To be noted: 72 h; for IC50: Homo sapiens, CD4+ T, read-out: Th1 Differentiation (IFNγ production) (IC50, nM).
In assay [3] the target is T1, RORα LBD (Homo sapiens, UniProt P35398).
T1 construct: made in house; host or cells: E. coli BL21DE3 GOLD, pET24a
T1 sequence (P35398 304-556 isoform P35398-1): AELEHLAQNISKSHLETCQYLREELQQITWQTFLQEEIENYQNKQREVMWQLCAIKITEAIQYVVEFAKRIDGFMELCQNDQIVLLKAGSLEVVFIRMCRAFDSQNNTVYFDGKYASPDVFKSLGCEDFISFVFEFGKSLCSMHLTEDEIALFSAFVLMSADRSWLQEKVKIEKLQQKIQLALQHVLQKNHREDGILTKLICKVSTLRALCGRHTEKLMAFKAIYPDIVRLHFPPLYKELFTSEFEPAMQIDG
Briefly: ThermoFluor binding assay, RORα LBD. To be noted: for Kd: recombinant human LBD, read-out: ThermoFlour Binding Assay (Kd, nM) RORα. On the procedure:
Recombinant human RORγ, RORα and RORβ LBD proteins were prepared for ThermoFlour binding assay. The nucleotide sequences encoding the ligand binding domains (LBD) of human RORγ (Genbank accession no. NP005051, amino acid 237–497), RORα (Genbank accession no. NP599022, amino acid 304–556), and RORβ (Genbank accession no. NP008845, amino acid 201–452) were PCR-amplified and cloned into pET24a (Novagen) for expression in bacteria. All recombinant proteins contained an additional amino acid sequence of […] at the N-terminal of LBD. After transformation of the bacteria strain BL21DE3 GOLD (Agilent) with the plasmids, 10 to 20 L cultures were grown to 1 OD and recombinant protein expression was induced overnight at 16°C with 0.2mM isopropyl-beta-D-thiogalactopyranoside (IPTG) (Corning). […]. His-tagged proteins were collected with Ni-NTA resin (Qiagen) and purified with a HiTrap Q HP column (GE Life Sciences) eluted with a 40 CV gradient of 50-500mM NaCl.
The ThermoFluor® assay was established to measure the change in protein stability upon binding with compounds. 1-Anilinonaphthalene-8-Sulfonic Acid (1,8-ANS) (Invitrogen) was used as a fluorescent dye to label the test proteins. The assay was performed in polypropylene PCR microplates (TF-0384/k, Abgene) with a final assay of 3 μL reaction mixture per well overlaid with 1 μL silicone oil (Sigma-Aldrich). Assay plates were robotically loaded onto a thermostatically controlled PCR-type thermal block and then heated at a ramp-rate of 1°C/min. Fluorescence emission was initiated by continuous illumination with UV light (LC6, Hamamatsu) via fiber optic with a band-pass filter (380–400 nm) and detected with a CCD camera (Sensys, Roper Scientific) filtered to detect signal of 500 ± 25 nm. Reference wells contained recombinant LBD of RORγt, RORα or RORβ alone, and the assay conditions were as follows: 0.065 mg/mL RORγt LBD, 60 μM 1,8-ANS, 100 mM HEPES pH 7.0, 10 mM NaCl, 2.5 mM GSH, 0.002% Tween- 20; 0.1 mg/mL RORα, 70 μM 1,8-ANS, 25 mM HEPES pH 7.0, 50 mM NaCl, 0.001% Tween-20; 0.08 mg/mL RORβ, 60 μM 1,8-ANS, 50 mM HEPES pH 7.0, 100 mM NaCl, 0.001% Tween-20. All 3 assays were performed in the absence and in the presence of 100 μM co-activator peptide SRC1 ([…], England Peptide custom synthesis). The binding affinity of test compounds was estimated as described previously.
(In DSF a fluorescence change marks the thermal transition of the protein.)

The target of assay [4] is T2, M3 (h) (Homo sapiens, UniProt P20309).
T2 construct: purchased Cerep
Put plainly: Cerep selectivity panel. The class given is binding. To be noted: for inhibition at 10 µM: read-out: % Inhibition at 10µM; for inhibition at 1 µM: read-out: % Inhibition at 1µM. On the procedure: (§1) Supplementary file pone.0181868.s003.docx: S3 Table Selectivity profile of RORγt inverse agonists A, B, C and D. Compounds were evaluated at 1 μM and 10 μM in a panel of assays against 50 receptors, ion channels and transporters (Profile service by Cerep Inc.). (DOCX) Click here for additional data file.
(§2) S3 Table. RORɣt inverse agonists A, B, C and D were evaluated at 1 µM and 10 µM in a panel of assays against 50 receptors, ion channels and transporters (Profile service by Cerep Inc.).

In assay [5] the target is T3, 5-HT6 (h) (Homo sapiens, UniProt P50406).
T3 construct: purchased Cerep
Briefly: Cerep selectivity panel. Type of assay: binding. The settings on record: for inhibition at 10 µM: read-out: % Inhibition at 10µM. As to the method: as §1, §2

Assay [6] deals with T4, 5HT2B (h) (Homo sapiens, UniProt P41595).
T4 construct: purchased Cerep
Put plainly: Cerep selectivity panel. The settings on record: for inhibition at 10 µM: read-out: % Inhibition at 10µM. The class given is binding. On the procedure:
as §1, §2

The target in assay [7] is T5, 5HT5A (h) (Homo sapiens, UniProt P47898).
T5 construct: purchased Cerep
Briefly: Cerep selectivity panel. The class given is binding. To be noted: for inhibition at 1 µM: read-out: % Inhibition at 1µM; for inhibition at 10 µM: read-out: % Inhibition at 10µM. As to the method:
as §1, §2

For assay [8], the target named is T6, OP3 (h) (Homo sapiens, UniProt P35372).
T6 construct: purchased Cerep
Put plainly: Cerep selectivity panel. The class given is binding. The settings on record: for inhibition at 10 µM: read-out: % Inhibition at 10µM; for inhibition at 1 µM: read-out: % Inhibition at 1µM. On the procedure:
as §1, §2

The target of assay [9] is T7, NK2 (h) (Homo sapiens, UniProt P21452).
T7 construct: purchased Cerep
T7 sequence (P21452 1-398): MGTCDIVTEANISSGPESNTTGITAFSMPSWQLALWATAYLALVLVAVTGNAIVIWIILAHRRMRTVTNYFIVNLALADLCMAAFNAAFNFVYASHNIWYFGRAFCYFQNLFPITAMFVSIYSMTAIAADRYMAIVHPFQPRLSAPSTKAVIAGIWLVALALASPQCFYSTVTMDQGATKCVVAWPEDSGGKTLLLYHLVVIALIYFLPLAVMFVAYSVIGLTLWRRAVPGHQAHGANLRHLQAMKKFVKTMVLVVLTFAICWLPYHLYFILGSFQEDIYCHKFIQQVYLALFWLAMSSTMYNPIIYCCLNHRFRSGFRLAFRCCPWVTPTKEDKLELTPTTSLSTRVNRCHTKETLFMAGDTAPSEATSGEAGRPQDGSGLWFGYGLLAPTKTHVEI
Put plainly: Cerep selectivity panel. The class given is binding. The settings on record: for inhibition at 1 µM: read-out: % Inhibition at 1µM; for inhibition at 10 µM: read-out: % Inhibition at 10µM. As to the method:
as §1, §2

pIC50, pKd: −log10 of the molar value. Like-named read-outs stand apart in the source and are kept apart here. Bounds are passed on as bounds.

The source of these data is paper PMC5538713, “RORγt and RORα signature genes in human Th17 cells” (PLoS ONE, 2017).

T6 sequence (P35372 whole entry): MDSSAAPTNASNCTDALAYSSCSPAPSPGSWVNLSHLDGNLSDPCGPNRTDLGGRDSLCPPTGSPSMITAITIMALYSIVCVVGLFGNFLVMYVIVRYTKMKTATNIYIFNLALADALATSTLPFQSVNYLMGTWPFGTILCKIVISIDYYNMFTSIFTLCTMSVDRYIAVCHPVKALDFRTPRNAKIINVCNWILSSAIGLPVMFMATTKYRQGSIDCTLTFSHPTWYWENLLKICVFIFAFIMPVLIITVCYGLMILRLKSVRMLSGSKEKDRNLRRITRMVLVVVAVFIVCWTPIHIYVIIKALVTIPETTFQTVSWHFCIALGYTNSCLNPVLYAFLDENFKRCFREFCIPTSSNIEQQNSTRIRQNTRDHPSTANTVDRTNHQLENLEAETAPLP
T3 sequence (P50406 whole entry): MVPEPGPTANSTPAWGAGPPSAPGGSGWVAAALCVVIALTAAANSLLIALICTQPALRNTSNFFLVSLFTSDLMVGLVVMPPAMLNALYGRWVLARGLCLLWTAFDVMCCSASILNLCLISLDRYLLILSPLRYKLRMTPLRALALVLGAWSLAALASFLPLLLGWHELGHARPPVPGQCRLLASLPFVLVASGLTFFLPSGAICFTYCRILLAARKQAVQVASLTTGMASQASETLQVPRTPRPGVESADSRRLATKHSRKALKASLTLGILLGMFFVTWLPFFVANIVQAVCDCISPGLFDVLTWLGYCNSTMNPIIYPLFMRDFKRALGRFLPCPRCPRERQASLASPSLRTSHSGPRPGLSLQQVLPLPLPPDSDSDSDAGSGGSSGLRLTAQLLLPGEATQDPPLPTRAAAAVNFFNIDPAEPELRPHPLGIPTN
T4 sequence (P41595 whole entry): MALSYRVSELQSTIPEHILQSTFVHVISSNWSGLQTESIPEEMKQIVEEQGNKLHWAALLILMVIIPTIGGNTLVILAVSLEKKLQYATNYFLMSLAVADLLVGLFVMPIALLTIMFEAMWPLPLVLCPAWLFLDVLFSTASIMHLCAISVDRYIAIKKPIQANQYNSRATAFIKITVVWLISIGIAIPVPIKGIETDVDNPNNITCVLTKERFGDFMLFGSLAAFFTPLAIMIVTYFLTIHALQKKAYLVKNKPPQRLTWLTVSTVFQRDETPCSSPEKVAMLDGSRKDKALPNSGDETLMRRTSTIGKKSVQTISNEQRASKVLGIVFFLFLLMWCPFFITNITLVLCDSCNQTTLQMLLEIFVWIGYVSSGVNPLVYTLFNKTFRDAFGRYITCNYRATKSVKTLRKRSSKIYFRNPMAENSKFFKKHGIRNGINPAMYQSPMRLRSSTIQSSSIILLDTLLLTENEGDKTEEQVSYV
T5 sequence (P47898 whole entry): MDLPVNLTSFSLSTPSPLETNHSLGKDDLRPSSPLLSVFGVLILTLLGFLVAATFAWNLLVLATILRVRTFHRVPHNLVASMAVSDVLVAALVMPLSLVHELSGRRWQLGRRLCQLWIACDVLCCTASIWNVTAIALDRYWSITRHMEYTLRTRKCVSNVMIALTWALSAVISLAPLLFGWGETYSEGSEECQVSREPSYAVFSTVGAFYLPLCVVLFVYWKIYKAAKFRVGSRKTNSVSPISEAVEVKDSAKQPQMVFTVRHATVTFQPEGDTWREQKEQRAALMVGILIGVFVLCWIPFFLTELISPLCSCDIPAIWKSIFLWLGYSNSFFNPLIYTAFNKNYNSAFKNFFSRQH
T2 sequence (P20309 whole entry): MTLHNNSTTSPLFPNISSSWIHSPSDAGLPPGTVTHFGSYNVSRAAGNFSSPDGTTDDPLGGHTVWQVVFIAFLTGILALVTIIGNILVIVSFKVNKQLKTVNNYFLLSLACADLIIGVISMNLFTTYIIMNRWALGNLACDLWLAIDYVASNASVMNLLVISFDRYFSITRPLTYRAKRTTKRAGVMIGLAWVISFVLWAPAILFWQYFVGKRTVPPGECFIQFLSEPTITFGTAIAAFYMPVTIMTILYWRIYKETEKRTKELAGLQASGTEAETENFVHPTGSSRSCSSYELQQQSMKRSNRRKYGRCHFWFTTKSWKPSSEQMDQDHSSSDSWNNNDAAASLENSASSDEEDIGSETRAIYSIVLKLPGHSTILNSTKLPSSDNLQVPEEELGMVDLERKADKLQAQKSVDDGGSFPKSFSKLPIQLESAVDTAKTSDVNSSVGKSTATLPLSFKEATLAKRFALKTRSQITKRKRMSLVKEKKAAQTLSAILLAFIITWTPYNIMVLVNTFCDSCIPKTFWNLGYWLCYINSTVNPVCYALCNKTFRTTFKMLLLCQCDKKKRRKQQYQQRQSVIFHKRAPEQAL

The pIC50 is the IC50 on a negative log10 scale, so that one unit is a factor of ten. A word on the Kd: it is the concentration at which binding is half-saturated. The inhibition is the relative decrease from the control value, in per cent. Consider `COc1nc2ccc([C@@](O)(c3ccc(C)nc3C)c3cnnn3C)cc2c(Cl)c1Cc1ccc(C(F)(F)F)cc1` [compound A], for which the pIC50 in assay [1] (human CD4 T cells, 3 days, read-out: Th17 Differentiation (IL-17A production) (IC50)) was 8.43; in [2] (human CD4 T cells, 3 days, read-out: Th1 Differentiation (IFNγ production) (IC50)) it was < 6.62. Further, in assay [3], the Kd stood at 166 nM. The inhibition at 10 µM in assay [4] (M3 (h), 10 µM) came to 63%; in assay [5] (5-HT6 (h), 10 µM), 10%; in assay [6] (5HT2B (h), 10 µM), 43%; in assay [7] (5HT5A (h), 10 µM), 84%; in assay [8] (OP3 (h), 10 µM), 17%; in assay [9] (NK2 (h), 10 µM), 41%. The inhibition at 1 µM in assay [7] (5HT5A (h), 1 µM) stood at 7%; in assay [9] (NK2 (h), 1 µM), 7%.
Broadly, the IC50 is the concentration that inhibits the measured activity by half. `COc1nc2ccc([C@@](O)(c3ccccc3)C3CCN(C(C)=O)CC3)cc2c(Cl)c1Cc1ccc(-n2cccn2)cc1` [C]: the IC50 is 18.3 nM in assay [1] and > 240 nM in assay [2]. For the same molecule, in assay [3], the Kd is > 70000 nM. Also, the inhibition at 1 µM was determined as 21% in assay [4]; 20% in assay [5] (read-out: % Inhibition at 1µM); 17.5% in [6] (read-out: % Inhibition at 1µM); 13% in assay [7]; 2% in [8]. The inhibition at 10 µM was determined as 19% in [4]; 22% in assay [5]; 1% in [6]; 23% in [7]; 15% in assay [8]; 19% in assay [9].
As a reminder, the pKd is the Kd on a negative log10 scale, so that one unit is a factor of ten. `COc1nc2ccc([C@](O)(c3ccc(Cl)cc3)c3cncn3C)cc2c(Cl)c1Cc1ccc(-n2cccn2)cc1` [B]: the IC50 in assay [1] is 84.5 nM; in assay [2] it was > 240 nM. The pKd in assay [3] is < 4.71. In addition, the inhibition at 1 µM turned out to be 1% in assay [4], 25% in [7], 3% in [8] and 9% in assay [9]. The inhibition at 10 µM in [4] was 15%; in assay [7], 31%; in [8], 3%; in assay [9] it was 30%.
For `CN(C)c1nc2ccc(C(O)(c3ccncc3)c3cncn3C)cc2c(Cl)c1-c1ccccc1` (stereo not drawn) [compound D], the IC50 in assay [1] was 22.2 nM; in assay [2] it was > 240 nM. In addition, the pKd in [3] is 6.72. In addition, the inhibition at 1 µM in [4] worked out at 33%; in [8], 3%; in assay [9], 9%. For the same molecule, the inhibition at 10 µM in [4] came out at 70%; in assay [5], 18%; in assay [6], 106%; in [7] it was 42%; in assay [8], 30%; in assay [9], 98%.
